Counter-ions that a name gives are not always drawn.
Target: T1, human V1a receptor (Homo sapiens, UniProt P37288)
T1 construct: expressed in transfected cells; host or cells: HEK293 cells, transiently transfected; cell membranes
Assay: human V1a receptor binding studies (3H-Vasopressin, SPA beads)
Settings: membranes from HEK293 cells transiently transfected with human V1a receptor, Ki calculated from IC50 by the Cheng-Prussoff equation, read-out: pKi (hV1a) (converted)
Description: The human V1a receptor was cloned by RT-PCR from total human liver RNA. The coding sequence was subcloned in an expression vector after sequencing to confirm the identity of the amplified sequence. […] Cell membranes were prepared from HEK293 cells transiently transfected with the expression vector and grown in 20 liter fermenters with the following protocol.
50 g of cells are resuspended in 30 ml freshly prepared ice cold Lyses buffer (50 mM HEPES, 1 mM EDTA, 10 mM magnesium dichloride adjusted to pH=7.4+complete cocktail of protease inhibitor (Roche Diagnostics)). Homogenized with Polytron for 1 min and solicited on ice for 2×2 minutes at 80% intensity (Vibrate solicitor). The preparation is centrifuged 20 min at 500 g at 4° C., the pellet is discarded and the supernatant centrifuged 1 hour at 43′000 g at 4° C. (19′000 rpm). The pellet is resuspended in 12.5 ml Lyses buffer+12.5 ml sucrose 20% and homogenized using a Polytron for 1-2 min. The protein concentration is determined by the Bradford method and aliquots are stored at −80° C. until use. For binding studies 60 mg Yttrium silicate SPA beads (Habersham®) are mixed with an aliquot of membrane in binding buffer (50 mM Tris, 120 mM sodium chloride, 5 mM potassium chloride, 2 mM calcium dichloride, 10 mM magnesium dichloride) for 15 minutes with mixing. 50 μl of bead/membrane mixture is then added to each well of a 96 well plate, followed by 50 μl of 4 nM 3H-Vasopressin (American Radiolabeled Chemicals). For total binding measurement 100 μl of binding buffer are added to the respective wells, for non-specific binding 100 μl of 8.4 mM cold vasopressin and for compound testing 100 μl of a serial dilution of each compound in 2% dimethyl sulfoxide. The plate is incubated 1 h at room temperature, centrifuged 1 min at 1000 g and counted on a Packard Top-Count. Non-specific binding counts are subtracted from each well and data is normalized to the maximum specific binding set at 100%. To calculate an IC50 the curve is fitted using a non-linear regression model (XLfit) and the Ki is calculated using the Cheng-Prussoff equation.

T1 sequence (P37288 whole entry): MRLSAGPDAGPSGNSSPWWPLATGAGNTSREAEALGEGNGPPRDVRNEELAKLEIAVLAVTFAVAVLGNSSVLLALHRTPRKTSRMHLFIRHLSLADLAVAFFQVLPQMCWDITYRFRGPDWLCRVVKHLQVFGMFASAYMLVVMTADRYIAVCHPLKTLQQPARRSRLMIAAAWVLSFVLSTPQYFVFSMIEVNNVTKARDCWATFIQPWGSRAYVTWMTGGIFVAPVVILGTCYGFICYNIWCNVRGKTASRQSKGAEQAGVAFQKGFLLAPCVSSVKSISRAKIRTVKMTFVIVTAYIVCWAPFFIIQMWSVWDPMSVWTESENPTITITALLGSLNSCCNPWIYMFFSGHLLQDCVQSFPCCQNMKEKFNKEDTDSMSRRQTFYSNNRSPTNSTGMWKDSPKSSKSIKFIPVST

Row | SMILES | Ki [nM]
1 | CC(=O)N1Cc2cc(Cl)ccc2-n2c(nnc2[C@H]2CC[C@H](c3ncccc3F)CC2)C1 [Example 37, trans-1-{8-Chloro-1-[4-(3-fluoro-pyridin-2-yl)-cyclohexyl]-4H,6H-2,3,5,10b-tetraaza-benzo[e]azulen-5-yl}-ethanone] | 1.62
2 | CN1Cc2cc(Cl)ccc2-n2c(nnc2[C@H]2CC[C@H](c3cccnc3)CC2)C1 [Example 50, trans-8-Chloro-5-methyl-1-(4-pyridin-3-yl-cyclohexyl)-5,6-dihydro-4H-2,3,5,10b-tetraaza-benzo[e]azulene] | 4.57
3 | Cc1cncc([C@H]2CC[C@H](c3nnc4n3-c3ccc(Cl)cc3CN(C(=O)OC(C)(C)C)C4)CC2)n1 [Example 72, trans-8-Chloro-1-[4-(6-methyl-pyrazin-2-yl)-cyclohexyl]-4H,6H-2,3,5,10b-tetraaza-benzo[e]azulene-5-carboxylic acid tert-butyl ester] | 1.2
4 | CC(C)(C)OC(=O)N1Cc2cc(Cl)ccc2-n2c(nnc2[C@H]2CC[C@@H](c3ncccn3)CC2)C1 [Example 58, cis-8-Chloro-1-(4-pyrimidin-2-yl-cyclohexyl)-4H,6H-2,3,5,10b-tetraaza-benzo[e]azulene-5-carboxylic acid tert-butyl ester] | 20.4
5 | CC(C)(C)OC(=O)N1Cc2cc(Cl)ccc2-n2c(nnc2[C@H]2CC[C@H](c3ccccn3)CC2)C1 [Example 1, trans-8-Chloro-1-(4-pyridin-2-yl-cyclohexyl)-4H,6H-2,3,5,10b-tetraaza-benzo[e]azulene-5-carboxylic acid tert-butyl ester] | 1.91
6 | CN1Cc2cc(Cl)ccc2-n2c(nnc2[C@H]2CC[C@H](c3ccccn3)CC2)C1 [Example 3, trans-8-Chloro-5-methyl-1-(4-pyridin-2-yl-cyclohexyl)-5,6-dihydro-4H-2,3,5,10b-tetraaza-benzo[e]azulene] | 0.794
7 | CC(C)c1cccc([C@H]2CC[C@H](c3nnc4n3-c3ccc(Cl)cc3CN(C)C4)CC2)n1 [Example 12, trans-8-Chloro-1-[4-(6-isopropyl-pyridin-2-yl)-cyclohexyl]-5-methyl-5,6-dihydro-4H-2,3,5,10b-tetraaza-benzo[e]azulene] | 8.51
8 | Cc1cnc(C)c([C@H]2CC[C@H](c3nnc4n3-c3ccc(Cl)cc3CNC4)CC2)n1 [Example 79, trans-8-Chloro-1-[4-(3,6-dimethyl-pyrazin-2-yl)-cyclohexyl]-5,6-dihydro-4H-2,3,5,10b-tetraaza-benzo[e]azulene hydrochloride] | 6.76
9 | Fc1ncccc1[C@H]1CC[C@H](c2nnc3n2-c2ccc(Cl)cc2CNC3)CC1 [Example 55, trans-8-Chloro-1-[4-(2-fluoro-pyridin-3-yl)-cyclohexyl]-5,6-dihydro-4H-2,3,5,10b-tetraaza-benzo[e]azulene] | 69.2
10 | Clc1ccc2c(c1)CNCc1nnc([C@H]3CC[C@H](c4cccnc4Cl)CC3)n1-2 [Example 52, trans-8-Chloro-1-[4-(2-chloro-pyridin-3-yl)-cyclohexyl]-5,6-dihydro-4H-2,3,5,10b-tetraaza-benzo[e]azulene] | 81.3
11 | Cc1cc(C)nc([C@H]2CC[C@H](c3nnc4n3-c3ccc(Cl)cc3CNC4)CC2)n1 [Example 64, trans-8-Chloro-1-[4-(4,6-dimethyl-pyrimidin-2-yl)-cyclohexyl]-5,6-dihydro-4H-2,3,5,10b-tetraaza-benzo[e]azulene hydrochloride] | 18.6
12 | Cc1cnc(C)c([C@H]2CC[C@H](c3nnc4n3-c3ccc(Cl)cc3CN(C(=O)OC(C)(C)C)C4)CC2)n1 [Example 78, trans-8-Chloro-1-[4-(3,6-dimethyl-pyrazin-2-yl)-cyclohexyl]-4H,6H-2,3,5,10b-tetraaza-benzo[e]azulene-5-carboxylic acid tert-butyl ester] | 0.794
13 | CC(C)(C)OC(=O)N1Cc2cc(Cl)ccc2-n2c(nnc2[C@H]2CC[C@@H](c3ncccc3F)CC2)C1 [Example 45, cis-8-Chloro-1-[4-(3-fluoro-pyridin-2-yl)-cyclohexyl]-4H,6H-2,3,5,10b-tetraaza-benzo[e]azulene-5-carboxylic acid tert-butyl ester] | 5.01
14 | CN1Cc2cc(Cl)ccc2-n2c(nnc2[C@H]2CC[C@H](c3cccnc3F)CC2)C1 [Example 56, trans-8-Chloro-1-[4-(2-fluoro-pyridin-3-yl)-cyclohexyl]-5-methyl-5,6-dihydro-4H-2,3,5,10b-tetraaza-benzo[e]azulene] | 8.13
15 | CN1Cc2cc(Cl)ccc2-n2c(nnc2[C@H]2CC[C@H](c3ccc(F)cn3)CC2)C1 [Example 24, trans-8-Chloro-1-[4-(5-fluoro-pyridin-2-yl)-cyclohexyl]-5-methyl-5,6-dihydro-4H-2,3,5,10b-tetraaza-benzo[e]azulene] | 1
16 | Clc1ccc2c(c1)CNCc1nnc([C@H]3CC[C@@H](c4ncccn4)CC3)n1-2 [Example 61, cis-8-Chloro-1-(4-pyrimidin-2-yl-cyclohexyl)-5,6-dihydro-4H-2,3,5,10b-tetraaza-benzo[e]azulene] | 427
17 | CC(C)(C)OC(=O)N1Cc2cc(Cl)ccc2-n2c(nnc2[C@H]2CC[C@H](c3cccnc3)CC2)C1 [Example 48, trans-8-Chloro-1-(4-pyridin-3-yl-cyclohexyl)-4H,6H-2,3,5,10b-tetraaza-benzo[e]azulene-5-carboxylic acid tert-butyl ester] | 0.603
18 | CN1Cc2cc(Cl)ccc2-n2c(nnc2[C@H]2CC[C@H](c3ncccc3Cl)CC2)C1 [Example 84, trans-8-Chloro-1-[4-(3-chloro-pyridin-2-yl)-cyclohexyl]-5-methyl-5,6-dihydro-4H-2,3,5,10b-tetraaza-benzo[e]azulene] | 0.501
19 | CC(C)(C)OC(=O)N1Cc2cc(Cl)ccc2-n2c(nnc2[C@H]2CC[C@H](c3cccc(Cl)n3)CC2)C1 [Example 16, trans-8-Chloro-1-[4-(6-chloro-pyridin-2-yl)-cyclohexyl]-4H,6H-2,3,5,10b-tetraaza-benzoazulene-5-carboxylic acid tert-butyl ester] | 0.302
20 | Cc1cccc([C@H]2CC[C@H](c3nnc4n3-c3ccc(Cl)cc3CN(C(=O)OC(C)(C)C)C4)CC2)n1 [Example 4, trans-8-Chloro-1-[4-(6-methyl-pyridin-2-yl)-cyclohexyl]-4H,6H-2,3,5,10b-tetraaza-benzo[e]azulene-5-carboxylic acid tert-butyl ester] | 0.2
21 | CC(C)c1cccc([C@H]2CC[C@H](c3nnc4n3-c3ccc(Cl)cc3CNC4)CC2)n1 [Example 11, trans-8-Chloro-1-[4-(6-isopropyl-pyridin-2-yl)-cyclohexyl]-5,6-dihydro-4H-2,3,5,10b-tetraaza-benzo[e]azulene hydrochloride] | 70.8
22 | CNCCN1Cc2cc(Cl)ccc2-n2c(nnc2[C@H]2CC[C@H](c3ncccc3F)CC2)C1 [Example 36, trans-(2-{8-Chloro-1-[4-(3-fluoro-pyridin-2-yl)-cyclohexyl]-4H,6H-2,3,5,10b-tetraaza-benzo[e]azulen-5-yl}-ethyl)-methyl-amine] | 28.2
23 | CN1Cc2cc(Cl)ccc2-n2c(nnc2[C@H]2CC[C@H](c3ncc(F)cc3F)CC2)C1 [Example 87, trans-8-Chloro-1-[4-(3,5-difluoro-pyridin-2-yl)-cyclohexyl]-5-methyl-5,6-dihydro-4H-2,3,5,10b-tetraaza-benzo[e]azulene] | 1.29
24 | CCN1Cc2cc(Cl)ccc2-n2c(nnc2[C@H]2CC[C@H](c3ncccc3F)CC2)C1 [Example 31, trans-8-Chloro-5-ethyl-[4-(3-fluoro-pyridin-2-yl)-cyclohexyl]-5,6-dihydro-4H-2,3,5,10b-tetraaza-benzo[e]azulene] | 0.562
25 | CC(C)N1Cc2cc(Cl)ccc2-n2c(nnc2[C@H]2CC[C@H](c3ncccc3F)CC2)C1 [Example 32, trans-8-Chloro-5-isopropyl-[4-(3-fluoro-pyridin-2-yl)-cyclohexyl]-5,6-dihydro-4H-2,3,5,10b-tetraaza-benzo[e]azulene] | 0.562
26 | Clc1ccc2c(c1)CNCc1nnc([C@H]3CC[C@H](c4ncccc4Cl)CC3)n1-2 [Example 83, trans-8-Chloro-1-[4-(3-chloro-pyridin-2-yl)-cyclohexyl]-5,6-dihydro-4H-2,3,5,10b-tetraaza-benzo[e]azulene] | 7.24
27 | COc1cccc([C@H]2CC[C@H](c3nnc4n3-c3ccc(Cl)cc3CNC4)CC2)n1 [Example 14, trans-8-Chloro-1-[4-(6-methoxy-pyridin-2-yl)-cyclohexyl]-5,6-dihydro-4H-2,3,5,10b-tetraaza-benzo[e]azulene] | 56.2

— patent US8492376B2, “Heteroaryl-cyclohexyl-tetraazabenzo[e]azulenes” (Hoffmann-La Roche Inc., priority 2010, dated 2013)
